Data published in PubChem BioAssay AID248 (DTP/NCI, 2004).
Values joined by “and” are separate entries in the source; they are usually repeats but may differ in a detail not shown here. Equal entries are not always repeated. Toxic doses and inconclusive results are not listed. Cut-off read from the data, not from the text of the source: active = T/C of 150% or more; inactive = T/C below 125%.

Test system: L1210 leukemia ip in BDF1 mice, survival T/C
Test: NCI In Vivo Anticancer Drug Screen. Data for tumor model L1210 Leukemia (intraperitoneal) in B6D2F1 (BDF1) mice
Conditions: endpoint: mean survival time, higher = longer survival
How it was run: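 Value reflects the ratio of survival in compound-treated mice to survival in vehicle-treated controls, with both groups carrying the same transplanted tumor.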

[1] = dose: 100.0 mg/kg/injection, schedule: Q01DX001 (ip), vehicle: carboxymethylcellulose (CMC)
[2] = dose: 200.0 mg/kg/injection, schedule: Q01DX001 (ip), vehicle: carboxymethylcellulose (CMC)
[3] = dose: 400.0 mg/kg/injection, schedule: Q01DX001 (ip), vehicle: carboxymethylcellulose (CMC)
[4] = dose: 50.0 mg/kg/injection, schedule: Q01DX001 (ip), vehicle: saline
[5] = dose: 100.0 mg/kg/injection, schedule: Q01DX001 (ip), vehicle: saline
[6] = dose: 200.0 mg/kg/injection, schedule: Q01DX001 (ip), vehicle: saline
[7] = dose: 400.0 mg/kg/injection, schedule: Q01DX001 (ip), vehicle: saline
[8] = dose: 100.0 mg/kg/injection, schedule: Q01DX009 (ip), vehicle: Klucel (hydroxypropylcellulose) (HPC)
[9] = dose: 100.0 mg/kg/injection, schedule: Q04DX003 (ip), vehicle: Klucel (hydroxypropylcellulose) (HPC)
[10] = dose: 200.0 mg/kg/injection, schedule: Q01DX009 (ip), vehicle: Klucel (hydroxypropylcellulose) (HPC)
[11] = dose: 200.0 mg/kg/injection, schedule: Q04DX003 (ip), vehicle: Klucel (hydroxypropylcellulose) (HPC)
[12] = dose: 400.0 mg/kg/injection, schedule: Q04DX003 (ip), vehicle: Klucel (hydroxypropylcellulose) (HPC)
[13] = dose: 100.0 mg/kg/injection, schedule: Q04DX003 (ip), vehicle: saline with Tween-80
[14] = dose: 50.0 mg/kg/injection, schedule: Q01DX009 (ip), vehicle: Klucel (hydroxypropylcellulose) (HPC)
[15] = dose: 100.0 mg/kg/injection, schedule: Q01DX009 (ip), vehicle: saline with Tween-80
[16] = dose: 200.0 mg/kg/injection, schedule: Q01DX009 (ip), vehicle: saline with Tween-80
[17] = dose: 200.0 mg/kg/injection, schedule: Q04DX003 (ip), vehicle: saline with Tween-80
[18] = dose: 400.0 mg/kg/injection, schedule: Q04DX003 (ip), vehicle: saline with Tween-80
[19] = dose: 400.0 mg/kg/injection, schedule: Q01DX009 (ip), vehicle: saline with Tween-80

Measured: T/C

CCCCOc1cc(C(=O)NCCN(CC)CC)c2ccccc2n1
inactive: dose: 6.25 mg/kg/injection, schedule: Q04DX003 (ip), vehicle: saline 98 % of control | dose: 12.5 mg/kg/injection, schedule: Q04DX003 (ip), vehicle: saline 98 % of control | dose: 25.0 mg/kg/injection, schedule: Q04DX003 (ip), vehicle: saline 107 % of control

COc1cc(NC(C)=O)c2ncccc2c1NC(C)=O
inactive: dose: 50.0 mg/kg/injection, schedule: Q01DX001 (ip), vehicle: carboxymethylcellulose (CMC) 96 % of control | [1] 102 % of control | [2] 96 % of control | [3] 94 % of control

COc1[nH]c(=O)ncc1Br
inactive: [4] 105 % of control | [5] 103 % of control | [6] 109 % of control | [7] 103 % of control

Cc1c(N)nc(C(CC(N)=O)NCC(N)C(N)=O)nc1C(=O)NC(C(=O)NC(C)C(O)C(C)C(=O)NC(C(=O)NCCc1nc(-c2nc(C(=O)NCCC[S+](C)C)cs2)cs1)C(C)O)C(OC1OC(CO)C(O)C(O)C1OC1OC(CO)C(O)C(OC(N)=O)C1O)c1cnc[nH]1 (stereo not given)
inactive: dose: 1.0 mg/kg/injection, schedule: Q01DX009 (ip), vehicle: Klucel (hydroxypropylcellulose) (HPC) 106 % of control | dose: 2.0 mg/kg/injection, schedule: Q01DX009 (ip), vehicle: Klucel (hydroxypropylcellulose) (HPC) 95 % of control | dose: 4.0 mg/kg/injection, schedule: Q01DX009 (ip), vehicle: Klucel (hydroxypropylcellulose) (HPC) 107 % of control | dose: 8.0 mg/kg/injection, schedule: Q01DX009 (ip), vehicle: Klucel (hydroxypropylcellulose) (HPC) 101 % of control

COc1cc(/C=N/Nc2nnc(N/N=C/c3cc(I)c(O)c(OC)c3)c3ccccc23)cc(I)c1O
inactive: [4] 95 % of control | [5] 95 % of control | [6] 101 % of control | [7] 97 % of control

O=S(O)c1cc(Br)ccc1Br
inactive: [8] 97 % of control | [9] 93 % of control | [10] 113 % of control | [11] 104 % of control | [12] 94 % of control

C/C(=C(/CCO)SCCC(=O)c1ccccc1)N(C=O)Cc1cnc(C)nc1N
inactive: dose: 100.0 mg/kg/injection, schedule: Q04DX003 (ip), vehicle: saline 101 % of control | dose: 200.0 mg/kg/injection, schedule: Q04DX003 (ip), vehicle: saline 93 % of control | dose: 400.0 mg/kg/injection, schedule: Q04DX003 (ip), vehicle: saline 93 % of control

O=C(OC(CCN1CCCCC1)c1ccccc1)c1ccccc1 (stereo not given)
inactive: [13] 100 % of control

CCCCC(CC)CP(=O)(CC(CC)CCCC)CC(CC)CCCC (stereo not given)
inactive: dose: 55.0 mg/kg/injection, schedule: Q01DX Z (ip), vehicle: methylcellulose (MC) 104 % of control | dose: 83.0 mg/kg/injection, schedule: Q01DX Z (ip), vehicle: methylcellulose (MC) 100 % of control | dose: 125.0 mg/kg/injection, schedule: Q01DX Z (ip), vehicle: methylcellulose (MC) 108 % of control

c1ccc2c(c1)NC(OC1CCCCC1)S2 (stereo not given)
inactive: dose: 100.0 mg/kg/injection, schedule: Q04DX002 (ip), vehicle: saline with Tween-80 101 % of control | dose: 200.0 mg/kg/injection, schedule: Q04DX002 (ip), vehicle: saline with Tween-80 90 % of control | dose: 400.0 mg/kg/injection, schedule: Q04DX002 (ip), vehicle: saline with Tween-80 90 % of control

NC1CCC2CCCCC2C1 (stereo not given)
inactive: dose: 25.0 mg/kg/injection, schedule: Q01DX009 (ip), vehicle: Klucel (hydroxypropylcellulose) (HPC) 101 % of control | dose: 25.0 mg/kg/injection, schedule: Q04DX003 (ip), vehicle: Klucel (hydroxypropylcellulose) (HPC) 95 % of control | [14] 93 % of control | dose: 50.0 mg/kg/injection, schedule: Q04DX003 (ip), vehicle: Klucel (hydroxypropylcellulose) (HPC) 100 % of control | [8] 98 % of control | [9] 94 % of control

CCCCCCCCCCCCCCCC(=O)Nc1ccc(C)cc1C
inactive: dose: 100.0 mg/kg/injection, schedule: Q04DX002 (ip), vehicle: Klucel (hydroxypropylcellulose) (HPC) 96 % of control | dose: 200.0 mg/kg/injection, schedule: Q04DX002 (ip), vehicle: Klucel (hydroxypropylcellulose) (HPC) 93 % of control | dose: 400.0 mg/kg/injection, schedule: Q04DX002 (ip), vehicle: Klucel (hydroxypropylcellulose) (HPC) 90 % of control

Cc1cccc(N2CCC3(CC2)C(=O)NC(=S)NC3=O)c1
inactive: [5] 104 % of control | [6] 94 % of control | [7] 98 % of control

Cc1cc(NC(=O)Nc2ccc(Cl)cc2Cl)no1
inactive: dose: 12.5 mg/kg/injection, schedule: Q01DX009 (ip), vehicle: saline with Tween-80 95 % of control | dose: 25.0 mg/kg/injection, schedule: Q01DX009 (ip), vehicle: saline with Tween-80 91 % of control | dose: 50.0 mg/kg/injection, schedule: Q01DX009 (ip), vehicle: saline with Tween-80 91 % of control and 92 % of control | [15] 95 % of control | [16] 95 % of control

Cn1c(=O)c2c(nc(CCCC3CCCCC3)n2C)n(C)c1=O
inactive: [4] 103 % of control | [5] 97 % of control | [6] 111 % of control | [7] 103 % of control

CCCC1OC1CCC (stereo not given)
inactive: [13] 109 % of control | [17] 97 % of control | [18] 91 % of control

CCCCCCCCCCCCC/C=N\NC(=O)CCCC(=O)N/N=C/CCCCCCCCCCCCC
inactive: dose: 50.0 mg/kg/injection, schedule: Q01DX001 (ip), vehicle: other 93 % of control | dose: 100.0 mg/kg/injection, schedule: Q01DX001 (ip), vehicle: other 91 % of control | dose: 200.0 mg/kg/injection, schedule: Q01DX001 (ip), vehicle: other 93 % of control | dose: 400.0 mg/kg/injection, schedule: Q01DX001 (ip), vehicle: other 98 % of control

COc1ccc(C2CCCCC2OS(C)(=O)=O)cc1 (stereo not given)
inactive: [1] 97 % of control | [2] 106 % of control | [3] 95 % of control

NC(=O)c1ncc[nH]c1=O
inactive: [14] 94 % of control | dose: 50.0 mg/kg/injection, schedule: Q01DX009 (ip), vehicle: saline 97 % of control | [8] 97 % of control | dose: 100.0 mg/kg/injection, schedule: Q01DX009 (ip), vehicle: saline 103 % of control | [9] 97 % of control | [10] 105 % of control | dose: 200.0 mg/kg/injection, schedule: Q01DX009 (ip), vehicle: saline 90 % of control | [11] 95 % of control | [12] 100 % of control

C=C(Cl)CSCC
inactive: [13] 111 % of control

CC(C)CC(NC(=O)OCc1ccccc1)C(=O)O (stereo not given)
inactive: [15] 87 % of control | [13] 103 % of control | [16] 97 % of control | [17] 101 % of control | [19] 95 % of control | [18] 97 % of control

OC(/C=C/c1ccccc1)(c1ccccc1)c1ccccc1
inactive: [9] 94 % of control | [11] 93 % of control | [12] 96 % of control

CN(C(=O)CCCO)c1cc([N+](=O)[O-])ccc1OCc1ccccc1
inactive: [15] 93 % of control | [13] 92 % of control | [16] 93 % of control | [17] 101 % of control | [19] 90 % of control | [18] 92 % of control
